Source: PubChem BioAssay AID1745844 (Carcinogenic Potency Database (CPDB), 2022)
Values joined by “and” are separate entries in the source; they are usually repeats but may differ in a detail not shown here. Equal values may be shown once. Active and inactive are the calls of the source. How the calls were made is not given here.

System: rodent lifetime carcinogenesis bioassay, tumor incidence TD50
Experiment: carcinogenic potency in animals, long-term in vivo studies, CPDB compilation (AID 1745844)

ClCC1CO1 (centres undefined)
TD50 (mouse, strain Ha/ICR, females, i.p., site: lung, lesion: papillary tumor, dosed 64 weeks, study length 64 weeks): 28.9 mg/kg/day | TD50 (rat, strain Sprague-Dawley, males, inhaled, site: nasal cavity, lesion: squamous-cell carcinoma, dosed 54 weeks, study length 136 weeks): 421 mg/kg/day | TD50 (rat, strain Wistar, females, by gavage, site: forestomach, lesion: squamous-cell carcinoma, dosed 104 weeks, study length 104 weeks): 2.55 mg/kg/day | carcinogen call (rat, strain Wistar, females, by gavage, site: liver, lesion: neoplastic nodule, dosed 104 weeks, study length 104 weeks): negative (inactive) | TD50 (rat, strain Wistar, males, by gavage, site: any site (literature study), lesion: several types, types named in the paper, dosed 104 weeks, study length 104 weeks): 4.83 mg/kg/day | TD50 (rat, strain Wistar, males, by gavage, site: forestomach, lesion: squamous-cell carcinoma, dosed 104 weeks, study length 104 weeks): 3.53 mg/kg/day | carcinogen call (rat, strain Wistar, males, by gavage, site: liver, lesion: hepatocellular carcinoma, dosed 104 weeks, study length 104 weeks): negative (inactive) | carcinogen call (rat, strain Wistar, males, by gavage, site: liver, lesion: neoplastic nodule, dosed 104 weeks, study length 104 weeks): negative (inactive) | TD50 (rat, strain Wistar, males, by gavage, site: liver, lesion: one or several types, types not named, dosed 104 weeks, study length 104 weeks): 218 mg/kg/day (inactive)

C=CC(=C)C
TD50 (mouse, strain B6C3F1, females, inhaled, site: Harderian gland, lesion: adenoma, dosed 80 weeks, study length 105 weeks): 319 mg/kg/day | TD50 (mouse, strain B6C3F1, females, inhaled, site: pituitary gland, lesion: pars distalis adenoma, dosed 80 weeks, study length 105 weeks): 247 mg/kg/day | TD50 (mouse, strain B6C3F1, females, inhaled, site: spleen, lesion: hemangiosarcoma, dosed 80 weeks, study length 105 weeks): 682 mg/kg/day | TD50 (mouse, strain B6C3F1, males, inhaled, site: Harderian gland, lesion: adenoma + carcinoma, dosed 26 weeks, study length 53 weeks): 96.8 mg/kg/day | TD50 (mouse, strain B6C3F1, males, inhaled, site: Harderian gland, lesion: adenoma, dosed 26 weeks, study length 53 weeks): 96.8 mg/kg/day | TD50 (mouse, strain B6C3F1, males, inhaled, site: Harderian gland, lesion: adenoma, dosed 40 weeks, study length 105 weeks): 739 mg/kg/day | TD50 (mouse, strain B6C3F1, males, inhaled, site: Harderian gland, lesion: adenoma, dosed 80 weeks, study length 96 weeks): 711 mg/kg/day | TD50 (mouse, strain B6C3F1, males, inhaled, site: Harderian gland, lesion: adenoma, dosed 80 weeks, study length 105 weeks): 881 mg/kg/day | TD50 (mouse, strain B6C3F1, males, inhaled, site: Harderian gland, lesion: carcinoma, dosed 26 weeks, study length 53 weeks): 14700 mg/kg/day | TD50 (mouse, strain B6C3F1, males, inhaled, site: Harderian gland, lesion: carcinoma, dosed 80 weeks, study length 96 weeks): 12800 mg/kg/day | TD50 (mouse, strain B6C3F1, males, inhaled, site: Harderian gland, lesion: carcinoma, dosed 80 weeks, study length 105 weeks): 15000 mg/kg/day | TD50 (mouse, strain B6C3F1, males, inhaled, site: any site (literature study), lesion: several types, types named in the paper, dosed 26 weeks, study length 53 weeks): 348 mg/kg/day | TD50 (mouse, strain B6C3F1, males, inhaled, site: forestomach + Harderian gland + liver + lung, lesion: squamous-cell carcinoma + squamous-cell papilloma + adenoma + carcinoma + hepatocellular adenoma + hepatocellular carcinoma + alveol, dosed 26 weeks, study length 53 weeks): 355 mg/kg/day | TD50 (mouse, strain B6C3F1, males, inhaled, site: forestomach, lesion: squamous-cell carcinoma + squamous-cell papilloma, dosed 26 weeks, study length 53 weeks): 1310 mg/kg/day | TD50 (mouse, strain B6C3F1, males, inhaled, site: forestomach, lesion: squamous-cell carcinoma, dosed 26 weeks, study length 53 weeks): 4850 mg/kg/day | TD50 (mouse, strain B6C3F1, males, inhaled, site: forestomach, lesion: squamous-cell carcinoma, dosed 80 weeks, study length 96 weeks): 25800 mg/kg/day | TD50 (mouse, strain B6C3F1, males, inhaled, site: forestomach, lesion: squamous-cell carcinoma, dosed 80 weeks, study length 105 weeks): 22200 mg/kg/day | TD50 (mouse, strain B6C3F1, males, inhaled, site: forestomach, lesion: squamous-cell papilloma, dosed 26 weeks, study length 53 weeks): 1860 mg/kg/day | TD50 (mouse, strain B6C3F1, males, inhaled, site: forestomach, lesion: squamous-cell papilloma, dosed 40 weeks, study length 105 weeks): 15600 mg/kg/day | TD50 (mouse, strain B6C3F1, males, inhaled, site: forestomach, lesion: squamous-cell papilloma, dosed 80 weeks, study length 96 weeks): 25800 mg/kg/day | TD50 (mouse, strain B6C3F1, males, inhaled, site: forestomach, lesion: squamous-cell papilloma, dosed 80 weeks, study length 105 weeks): 45000 mg/kg/day | TD50 (mouse, strain B6C3F1, males, inhaled, site: heart, lesion: hemangiosarcoma, dosed 40 weeks, study length 105 weeks): 32900 mg/kg/day | TD50 (mouse, strain B6C3F1, males, inhaled, site: heart, lesion: hemangiosarcoma, dosed 80 weeks, study length 96 weeks): 25800 mg/kg/day | TD50 (mouse, strain B6C3F1, males, inhaled, site: heart, lesion: hemangiosarcoma, dosed 80 weeks, study length 105 weeks): 39000 mg/kg/day | TD50 (mouse, strain B6C3F1, males, inhaled, site: liver, lesion: hepatocellular adenoma + hepatoblastoma + hepatocellular carcinoma, dosed 26 weeks, study length 53 weeks): 183 mg/kg/day | TD50 (mouse, strain B6C3F1, males, inhaled, site: liver, lesion: hepatocellular adenoma + hepatocellular carcinoma, dosed 26 weeks, study length 53 weeks): 183 mg/kg/day | TD50 (mouse, strain B6C3F1, males, inhaled, site: liver, lesion: hepatocellular adenoma, dosed 26 weeks, study length 53 weeks): 150 mg/kg/day | TD50 (mouse, strain B6C3F1, males, inhaled, site: liver, lesion: hepatocellular adenoma, dosed 40 weeks, study length 105 weeks): 1070 mg/kg/day | TD50 (mouse, strain B6C3F1, males, inhaled, site: liver, lesion: hepatocellular adenoma, dosed 80 weeks, study length 96 weeks): 1760 mg/kg/day | TD50 (mouse, strain B6C3F1, males, inhaled, site: liver, lesion: hepatocellular adenoma, dosed 80 weeks, study length 105 weeks): 1570 mg/kg/day | TD50 (mouse, strain B6C3F1, males, inhaled, site: liver, lesion: hepatocellular carcinoma, dosed 26 weeks, study length 53 weeks): 1270 mg/kg/day | TD50 (mouse, strain B6C3F1, males, inhaled, site: liver, lesion: hepatocellular carcinoma, dosed 40 weeks, study length 105 weeks): 2330 mg/kg/day | TD50 (mouse, strain B6C3F1, males, inhaled, site: liver, lesion: hepatocellular carcinoma, dosed 80 weeks, study length 96 weeks): 3290 mg/kg/day | TD50 (mouse, strain B6C3F1, males, inhaled, site: liver, lesion: hepatocellular carcinoma, dosed 80 weeks, study length 105 weeks): 4850 mg/kg/day | TD50 (mouse, strain B6C3F1, males, inhaled, site: lung, lesion: alveolar/bronchiolar adenoma + alveolar/bronchiolar carcinoma, dosed 26 weeks, study length 53 weeks): 752 mg/kg/day | TD50 (mouse, strain B6C3F1, males, inhaled, site: lung, lesion: alveolar/bronchiolar adenoma, dosed 26 weeks, study length 53 weeks): 836 mg/kg/day | TD50 (mouse, strain B6C3F1, males, inhaled, site: lung, lesion: alveolar/bronchiolar adenoma, dosed 40 weeks, study length 105 weeks): 908 mg/kg/day | TD50 (mouse, strain B6C3F1, males, inhaled, site: lung, lesion: alveolar/bronchiolar adenoma, dosed 80 weeks, study length 96 weeks): 4810 mg/kg/day | TD50 (mouse, strain B6C3F1, males, inhaled, site: lung, lesion: alveolar/bronchiolar adenoma, dosed 80 weeks, study length 105 weeks): 1660 mg/kg/day | TD50 (mouse, strain B6C3F1, males, inhaled, site: lung, lesion: alveolar/bronchiolar carcinoma, dosed 26 weeks, study length 53 weeks): 2790 mg/kg/day | TD50 (mouse, strain B6C3F1, males, inhaled, site: lung, lesion: alveolar/bronchiolar carcinoma, dosed 40 weeks, study length 105 weeks): 9230 mg/kg/day | TD50 (mouse, strain B6C3F1, males, inhaled, site: lung, lesion: alveolar/bronchiolar carcinoma, dosed 80 weeks, study length 96 weeks): 8410 mg/kg/day | TD50 (mouse, strain B6C3F1, males, inhaled, site: lung, lesion: alveolar/bronchiolar carcinoma, dosed 80 weeks, study length 105 weeks): 6680 mg/kg/day | TD50 (mouse, strain B6C3F1, males, inhaled, site: lymphoreticular system, lesion: histiocytic sarcoma, dosed 40 weeks, study length 105 weeks): 4430 mg/kg/day | TD50 (mouse, strain B6C3F1, males, inhaled, site: lymphoreticular system, lesion: histiocytic sarcoma, dosed 80 weeks, study length 96 weeks): 3450 mg/kg/day | TD50 (mouse, strain B6C3F1, males, inhaled, site: lymphoreticular system, lesion: histiocytic sarcoma, dosed 80 weeks, study length 105 weeks): 150000 mg/kg/day | TD50 (mouse, strain B6C3F1, males, inhaled, site: spleen, lesion: hemangiosarcoma, dosed 80 weeks, study length 96 weeks): 25800 mg/kg/day | TD50 (rat, strain Fischer 344, females, inhaled, site: any site (literature study), lesion: several types, types named in the paper, dosed 105 weeks, study length 105 weeks): 6940 mg/kg/day | TD50 (rat, strain Fischer 344, females, inhaled, site: brain, meninges, lesion: granular-cell tumor, benign, dosed 105 weeks, study length 105 weeks): 40600 mg/kg/day | TD50 (rat, strain Fischer 344, females, inhaled, site: brain, meninges, lesion: sarcoma, dosed 105 weeks, study length 105 weeks): 50800 mg/kg/day | carcinogen call (rat, strain Fischer 344, females, inhaled, site: brain, lesion: astrocytoma, benign, dosed 105 weeks, study length 105 weeks): e | TD50 (rat, strain Fischer 344, females, inhaled, site: brain, lesion: malignant glioma, dosed 105 weeks, study length 105 weeks): 30800 mg/kg/day | TD50 (rat, strain Fischer 344, females, inhaled, site: brain, lesion: medulloblastoma, malignant, dosed 105 weeks, study length 105 weeks): 52800 mg/kg/day | TD50 (rat, strain Fischer 344, females, inhaled, site: liver, lesion: hepatocellular adenoma + hepatoblastoma + hepatocellular carcinoma, dosed 105 weeks, study length 105 weeks): 25300 mg/kg/day | TD50 (rat, strain Fischer 344, females, inhaled, site: mammary gland, lesion: fibroadenoma + fibroadenoma, multiple, dosed 105 weeks, study length 105 weeks): 3340 mg/kg/day | TD50 (rat, strain Fischer 344, females, inhaled, site: mammary gland, lesion: fibroadenoma, multiple, dosed 105 weeks, study length 105 weeks): 206 mg/kg/day | TD50 (rat, strain Fischer 344, males, inhaled, site: kidney + mammary gland + testis, lesion: tubule adenoma + carcinoma + fibroadenoma + fibroadenoma, multiple + interstitial-cell adenoma, bilateral + interstitial-cell aden, dosed 104 weeks, study length 104 weeks): 988 mg/kg/day | TD50 (rat, strain Fischer 344, males, inhaled, site: kidney, lesion: tubule adenoma + tubule carcinoma, dosed 104 weeks, study length 104 weeks): 3150 mg/kg/day and 2290 mg/kg/day | TD50 (rat, strain Fischer 344, males, inhaled, site: kidney, lesion: tubule adenoma, dosed 104 weeks, study length 104 weeks): 3150 mg/kg/day and 2290 mg/kg/day | TD50 (rat, strain Fischer 344, males, inhaled, site: mammary gland, lesion: carcinoma + fibroadenoma, dosed 104 weeks, study length 104 weeks): 670 mg/kg/day | TD50 (rat, strain Fischer 344, males, inhaled, site: mammary gland, lesion: carcinoma, dosed 104 weeks, study length 104 weeks): 7880 mg/kg/day | TD50 (rat, strain Fischer 344, males, inhaled, site: mammary gland, lesion: fibroadenoma + fibroadenoma, multiple, dosed 104 weeks, study length 104 weeks): 655 mg/kg/day | TD50 (rat, strain Fischer 344, males, inhaled, site: mammary gland, lesion: fibroadenoma, multiple, dosed 104 weeks, study length 104 weeks): 2220 mg/kg/day | TD50 (rat, strain Fischer 344, males, inhaled, site: mammary gland, lesion: fibroadenoma, dosed 104 weeks, study length 104 weeks): 655 mg/kg/day | TD50 (rat, strain Fischer 344, males, inhaled, site: testis, lesion: interstitial-cell adenoma, bilateral + interstitial-cell adenoma, dosed 104 weeks, study length 104 weeks): 914 mg/kg/day | TD50 (rat, strain Fischer 344, males, inhaled, site: testis, lesion: interstitial-cell adenoma, dosed 26 weeks, study length 52 weeks): 316 mg/kg/day

Nc1ccc(N=Nc2ccc(N)cc2)cc1
carcinogen call (mouse, strain BALB/cLacDp, females, in feed, site: liver, lesion: several types, types named in the paper, dosed 60 weeks, study length 132 weeks): negative (inactive) | TD50 (mouse, strain BALB/cLacDp, females, in feed, site: lung, lesion: several types, types named in the paper, dosed 60 weeks, study length 132 weeks): 240 mg/kg/day (inactive) | carcinogen call (mouse, strain BALB/cLacDp, males, in feed, site: liver, lesion: several types, types named in the paper, dosed 60 weeks, study length 132 weeks): negative (inactive) | TD50 (mouse, strain BALB/cLacDp, males, in feed, site: lung, lesion: several types, types named in the paper, dosed 60 weeks, study length 132 weeks): 213 mg/kg/day (inactive)
